Laboratory results as given in ChEMBL document CHEMBL1151363, “Chemical composition and biological activity of the Tanzanian plant Ocimum suave” (1981).
Values after ≈ are worked out from the molar mass of the structure shown.

Legend:
Assay type in all cases: functional
[1] = system: Escherichia coli; test: Antimicrobial activity against Escherichia coli UNSWO24101 after 48 hrs
[2] = system: Micrococcus luteus; test: Antimicrobial activity against Micrococcus luteus ATCC 9341 after 48 hrs; conditions: ATCC 9341, 48 h
[3] = system: Staphylococcus aureus; test: Antimicrobial activity against Staphylococcus aureus ATCC 6538 after 48 hrs; conditions: ATCC 6538, 48 h
[4] = system: Saccharomyces cerevisiae; test: Antimicrobial activity against Saccharomyces cerevisiae UNSA Y-40 after 48 hrs

`C=CCc1ccc(O)c(OC)c1` [EUGENOL] gave an MIC [1] of 600 µg/mL (≈ 3.65 mM), an MIC [2] of 600 µg/mL (≈ 3.65 mM) and an MIC [3] of 700 µg/mL (≈ 4.26 mM). It also gave an MIC [4] of 400 µg/mL (≈ 2.44 mM).
